From patent US20090317477A1, “COMBINATION OF DEHYDROEPIANDROSTERONE OR DEHYDROEPIANDROSTERONE-SULFATE WITH A GLUCOCORTICOSTEROID FOR TREATMENT OF ASTHMA, CHRONIC OBSTRUCTIVE PULMONARY DISEASE OR ALLERGIC RHINITIS” (priority 2004, published 2009)
Where “and” joins values, the source holds several entries; their conditions need not be identical. Equal entries are not always repeated.

Assays:
Intracellular adenosine = format: in vivo, Fischer 344 rats; settings: rat
HT-29 SF cells [1] = test: DHEA effect on cell cycle (flow cytometry); format: cell-based, human
Protocol: Cells are plated at 10^5/60-mm dish in duplicate. […] Cultures are trypsinized following […] and fixed and stained using a modification of a procedure of Bauer et al., Cancer Res. 46, 3173-3178 (1986). Briefly, cells are collected by centrifugation and resuspended in cold phosphate-buffered saline. Cells are fixed in 70% ethanol, washed, and resuspended in phosphate-buffered saline.
After 24, 48, and 72 hours, cells are harvested, fixed in ethanol, and stained with propidium iodide, and the DNA content/cell is determined by flow cytometric analysis. The percentage of cells in G1, S, and G2M phases is calculated using the Cellfit cell cycle analysis program. S phase is marked by a quadrangle for clarity. Representative histograms from duplicate determinations are shown. The experiment is repeated three times.

HT-29 SF cells [2] = test: DHEA effect on cell growth
Protocol: Cell cultures, HT-29 SF cells, which represent a subline of HY-29 cells (ATCC, Rockville, Md.) and are adapted for growth in completely defined serum-free PC-1 medium (Ventrex, Portland, Me.), are obtained. Stock cultures are maintained in this medium at 37° C. (in a humidified atmosphere containing 5% CO2).

HT-29 SF cells [3] = test: Reversal of DHEA effect on cell cycle; format: cell-based, human; settings: 25 μM DHEA; increasing exposure time
[4] = Solid-state stability at 50° C. with and without lactose (DHEA formed, HPLC); format: physicochemical; settings: dihydrate
From the text: These conditions are used to stress the formulation in order to predict its long-term stability results. […] The primary degradant is DHEA. […] The materials on accelerated storage become more cohesive with time as evidenced by clumping during sample weighing for chemical analysis. […] This is a considerable disadvantage since lactose is the most commonly used inhalation excipient for dry powder formulations. Continuing with the virtually anhydrous form would mean limiting formulations to neat powder or undertaking more comprehensive safety studies to use a novel excipient.

Glucocorticoid receptor = target: T1, Glucocorticoid receptor (Homo sapiens, UniProt P04150); test: Radioligand binding assay, Glucocorticoid; settings: 100 μM
T1 sequence (P04150 1-777): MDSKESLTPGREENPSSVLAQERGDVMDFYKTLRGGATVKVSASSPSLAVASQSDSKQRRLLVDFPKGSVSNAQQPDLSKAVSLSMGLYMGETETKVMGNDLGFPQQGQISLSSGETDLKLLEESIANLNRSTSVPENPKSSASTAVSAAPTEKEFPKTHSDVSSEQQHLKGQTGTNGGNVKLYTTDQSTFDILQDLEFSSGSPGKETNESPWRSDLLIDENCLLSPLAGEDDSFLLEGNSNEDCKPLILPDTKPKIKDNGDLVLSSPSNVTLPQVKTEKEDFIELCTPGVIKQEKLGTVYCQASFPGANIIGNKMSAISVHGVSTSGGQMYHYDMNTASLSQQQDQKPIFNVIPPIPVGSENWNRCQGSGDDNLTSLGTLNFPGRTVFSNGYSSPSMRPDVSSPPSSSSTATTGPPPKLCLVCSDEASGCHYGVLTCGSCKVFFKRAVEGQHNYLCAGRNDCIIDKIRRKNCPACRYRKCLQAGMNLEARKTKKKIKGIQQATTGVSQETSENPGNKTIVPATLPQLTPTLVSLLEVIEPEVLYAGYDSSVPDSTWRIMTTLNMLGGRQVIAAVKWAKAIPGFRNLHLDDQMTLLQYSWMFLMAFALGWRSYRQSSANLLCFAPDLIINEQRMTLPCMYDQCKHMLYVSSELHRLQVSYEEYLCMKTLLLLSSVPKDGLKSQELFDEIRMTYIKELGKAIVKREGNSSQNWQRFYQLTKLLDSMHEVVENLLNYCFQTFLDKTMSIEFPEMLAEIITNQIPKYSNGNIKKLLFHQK

[5] = Fine particle fraction, single-dose Acu-Breathe device into Andersen impactor; format: physicochemical; settings: aerosol of dihydrate/lactose blend; Test 2; 60 L/min
Protocol: The single-dose Acu-Breathe device is used for evaluating DHEA-S-dihydrate. Approximately 10 mg of neat DHEA-S-dihydrate powder is filled and sealed into foil blisters. These blisters are actuated into the Andersen 8-stage cascade impactor at flow rates ranging from 30 to 75 L/min with a glass twin-impinger throat. Stages 1-5 of the Andersen impactor are rinsed together to obtain an estimate of the fine particle fraction. Pooling the drug collected from multiple stages into one assay make the method much more sensitive. […] This unique feature of DHEA-S-dihydrate has not been reported in any previous literature. […] Using a carrier with a larger particle size typically improves the aerosol properties of micronized drug substances.
Approximately 25 mg of this powder is filled and sealed in foil blisters and aerosolized using the single-dose device at 60 L/min. The aerosol results for this preliminary powder blend are satisfactory for a respiratory drug delivery system. […] This diameter is smaller than the median diameter measured for micronized DHEA-S-dihydrate by laser diffraction. Irregularly shaped particles can behave aerodynamically as smaller particles since their longest dimension tends to align with the air flow field. Therefore, it is common to see a difference between the two methods. […]

[6] = Nebulizer studies (Pari ProNeb Ultra, LC Plus); format: physicochemical; settings: 0.12% NaCl
Protocol: The nebulizer is filled with 5 mL of solution and nebulization is continued until the output became visually insignificant (4½ to 5 min.). Nebulizer solutions are tested using a California Instruments AS-6 6-stage impactor with a USP throat. The impactor is run at 30 L/min for 8 s to collect a sample following one minute of nebulization time. At all other times during the experiment, the aerosol is drawn through the by-pass collector at approximately 33 L/min. The collection apparatus, nebulizer, and impactor are rinsed with mobile phase and assayed by HPLC. […] This volume is selected as the practical upper limit for use in a clinical study.

[7] = test system: Glucocorticoid, Testosterone, Estrogen ERα, Estrogen ERβ, Progesterone, Vitamin D3 receptors; test: Radioligand binding assays, steroid receptor panel (statements in words)
[8] = test system: LPS-induced secretion of TNFα from PBMC; test: LPS-induced secretion of TNFα from PBMC; format: cell-based, human
Protocol: Thereafter, 1 μg/ml LPS was added to induce the cytokine secretion and the mixture was incubated for 24 h at 37° C. For basal control measurements, LPS was omitted from the incubation medium. Following incubation, the samples were centrifuged at 250× g for 5 min at 4° C. and the supernatants were collected.
The amount of secreted TNF-α present in the supernatant was quantified using an EIA detection kit (R&D systems). The photometric measurements were made with a microplate reader (Ultra, Tecan).
The results are expressed as a percent inhibition of the control secretion induced by LPS in Table 16.

Solubility of DHEA-S = format: physicochemical; settings: 20 mM Na^+; Ksp of 1316 mM^2 (15° C.)
From the text: Inhalation of pure water can produce a cough stimulus. […] The temperature effect is weaker at high NaCl concentrations.

[9] = Homo sapiens, PBMC, read-out: percent inhibition of LPS-induced TNFα secretion

SMILES: Nc1nc(=O)c2c([nH]1)NCC(CNc1ccc(C(=O)N[C@@H](CCC(=O)O)C(=O)O)cc1)N2C=O (mixture of isomers) [Folinic Acid]
- Intracellular adenosine, Brain (Intracellular adenosine; in vivo): 0.72 ± 0.09
- effect of coadministration of folinic acid on steroid-mediated adenosine depletion (Intracellular adenosine; with DHEA or methyltestosterone): completely abrogate steroid-mediated adenosine depletion

SMILES: C[C@]12CC[C@H](O)CC1=CC[C@@H]1[C@@H]2CC[C@]2(C)C(=O)CC[C@@H]12 [DHEA, 3β-hydroxyandrost-5-en-17-one]
- cell cycle distribution (HT-29 SF cells [1]; 200 μM DHEA): more rapid increase in the percentage of cells in G1 and a decreased proportion of cells in S phase after 24 hours
- cell cycle effect (HT-29 SF cells [1]; 25, 50, 200 μM, 24-72 hours): G1 block in HT-29 SF cells in a time-and dose-dependent manner
- effect on adenosine across organs (Intracellular adenosine; daily for two weeks): multi-organ depletion of adenosine
- exposure time after which cell number is reduced compared to controls (HT-29 SF cells [2]; 12.5 μM DHEA): 72 h
- exposure time after which cell number is reduced compared to controls (HT-29 SF cells [2]; 25 μM DHEA): 48 h
- exposure time after which cell number is reduced compared to controls (HT-29 SF cells [2]; 50 μM DHEA): 48 h
- exposure time after which cell number is reduced compared to controls (HT-29 SF cells [2]; 200 μM DHEA): 24 h
- inhibition of growth (HT-29 SF cells [2]; 12.5-200 μM, 24-72 hours): time- and dose-dependent inhibition of growth
- effect on proportion of cells in S phase (HT-29 SF cells [3]): progressively reduced the proportion of cells in S phase

SMILES: CC12CCC3C(CC=C4CC(OS(=O)(=O)[O-])CCC43C)C1CCC2=O.[Na+] (centres unmarked) [DHEA-S dihydrate]
- Percent DHEA formed ([4]; 50° C., 1 week): 0.216%
- Percent DHEA formed ([4]; 50° C., 3 weeks): 0.317%
- Percent DHEA formed ([4]; 50° C., 4 weeks): 0.374%
- Percent DHEA formed ([4]; Control, sealed, 25° C., 4 weeks): 0.218%
- Percent DHEA formed ([4]; Control, sealed, 25° C., first column (Time=0)): 0.213%

SMILES: C[C@]12CC[C@H](OS(=O)(=O)[O-])CC1=CC[C@@H]1[C@@H]2CC[C@]2(C)C(=O)CC[C@@H]12.[Na+] [DHEA-S, sodium dehydroepiandrostenone sulfate]
- binding to the glucocorticosteroid receptor (Glucocorticoid receptor): does not bind to the glucocorticosteroid receptor
- median diameter of aerosol by cascade impaction [5]: ~2.5 μm
- highest solution concentration for a clinical trial formulation (no precipitate during nebulization) [6]: approximately 7.5 mg/mL
- binding to the steroid receptors [7]: lack of effect on ligand binding on the other four receptors
- percent inhibition of LPS-induced TNFα secretion ([8]; DHEAS 30 μM alone): −2%
- percent inhibition of LPS-induced TNFα secretion ([8]; DHEAS 100 μM alone): 32%
- calculated solubility of DHEA-S^− (Solubility of DHEA-S): 27.5 mM and 10.7 mg/mL

SMILES: C[C@@H]1C[C@H]2[C@@H]3CCC4=CC(=O)C=C[C@]4(C)[C@@]3(F)[C@@H](O)C[C@]2(C)[C@@]1(O)C(=O)CO [Dexamethasone]
- inhibition at 0.001 µM [8, 9]: -3%
- inhibition at 0.01 µM [8, 9]: 4%
- inhibition at 0.1 µM [8, 9]: 36%
